In patent US9302991B2, “Arylamide derivatives as TTX-S blockers” (RaQualia Pharma Inc., priority 2010, dated 2016):

Legend:
[1] = biological target: T1, human Nav1.3 channels (Homo sapiens, UniProt Q9NY46); test: FRET assay, human Nav1.3 (EFS on FDSS); format: cell-based; conditions: HEK293 cells expressing human Nav1.3, read-out: IC50 against Nav1.3
T1 construct: expressed in transfected cells; host or cells: HEK293
Method in brief: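 HEK293 cells expressing the channel, loaded with 10 microM CC2-DMPE then 15 microM DiSBAC2(3) plus 0.555 mM VABSC-1 in pH 7.4 HEPES buffer at room temperature. Membrane potential changes evoked by electrical field stimulation after compound addition; IC50 from 440 nm-normalized FRET ratios.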

[2] = system: Paw incision-induced static allodynia in rats; test: Paw incision-induced static allodynia in rats; format: in vivo, Sprague-Dawley rats; conditions: 30 mg/kg per os
Experimental: Paw Incision-Induced Static Allodynia in Rats
Male Sprague-Dawley rats at 7 weeks old are purchased from Charles River Japan Inc., and housed in groups of two per cage under a 12-h light/dark cycle (lights on at 07:00) with access to food and water ad libitum. Paw incision-induced static allodynia is assessed by VFH test. Surgery is performed according to the procedure described by Brennan et al. (Pain 1996, 64: 493-501). The animals are initially anesthetized with 3-4% isoflurane/O2 mixture in an anesthetic chamber and maintained with 2-3% delivered through a nose cone. The plantar surface of the right hind paw is sterilized with 7.5% povidone-iodine solution. A 1-cm longitudinal incision is made with a number 11 blade, through skin and fascia of the plantar aspect of the paw, starting 0.5 cm from the proximal edge of the heel and extending toward the toes. The plantaris muscle is elevated using forceps and retracted. The muscle origin and insertion remain intact. After hemostasis with gentle pressure, the skin is apposed with 2 sutures of 5-0 nylon. The wound site is covered with Terramycin ointment, and the rats are allowed to recover in their cages with soft bedding. The animals are individually placed in a Plexiglas test chamber on an elevated grid to acclimate for 1 hour before the day of surgery. […] The PWT is measured at the appropriated time after compound administration.

T1 sequence (Q9NY46 whole entry): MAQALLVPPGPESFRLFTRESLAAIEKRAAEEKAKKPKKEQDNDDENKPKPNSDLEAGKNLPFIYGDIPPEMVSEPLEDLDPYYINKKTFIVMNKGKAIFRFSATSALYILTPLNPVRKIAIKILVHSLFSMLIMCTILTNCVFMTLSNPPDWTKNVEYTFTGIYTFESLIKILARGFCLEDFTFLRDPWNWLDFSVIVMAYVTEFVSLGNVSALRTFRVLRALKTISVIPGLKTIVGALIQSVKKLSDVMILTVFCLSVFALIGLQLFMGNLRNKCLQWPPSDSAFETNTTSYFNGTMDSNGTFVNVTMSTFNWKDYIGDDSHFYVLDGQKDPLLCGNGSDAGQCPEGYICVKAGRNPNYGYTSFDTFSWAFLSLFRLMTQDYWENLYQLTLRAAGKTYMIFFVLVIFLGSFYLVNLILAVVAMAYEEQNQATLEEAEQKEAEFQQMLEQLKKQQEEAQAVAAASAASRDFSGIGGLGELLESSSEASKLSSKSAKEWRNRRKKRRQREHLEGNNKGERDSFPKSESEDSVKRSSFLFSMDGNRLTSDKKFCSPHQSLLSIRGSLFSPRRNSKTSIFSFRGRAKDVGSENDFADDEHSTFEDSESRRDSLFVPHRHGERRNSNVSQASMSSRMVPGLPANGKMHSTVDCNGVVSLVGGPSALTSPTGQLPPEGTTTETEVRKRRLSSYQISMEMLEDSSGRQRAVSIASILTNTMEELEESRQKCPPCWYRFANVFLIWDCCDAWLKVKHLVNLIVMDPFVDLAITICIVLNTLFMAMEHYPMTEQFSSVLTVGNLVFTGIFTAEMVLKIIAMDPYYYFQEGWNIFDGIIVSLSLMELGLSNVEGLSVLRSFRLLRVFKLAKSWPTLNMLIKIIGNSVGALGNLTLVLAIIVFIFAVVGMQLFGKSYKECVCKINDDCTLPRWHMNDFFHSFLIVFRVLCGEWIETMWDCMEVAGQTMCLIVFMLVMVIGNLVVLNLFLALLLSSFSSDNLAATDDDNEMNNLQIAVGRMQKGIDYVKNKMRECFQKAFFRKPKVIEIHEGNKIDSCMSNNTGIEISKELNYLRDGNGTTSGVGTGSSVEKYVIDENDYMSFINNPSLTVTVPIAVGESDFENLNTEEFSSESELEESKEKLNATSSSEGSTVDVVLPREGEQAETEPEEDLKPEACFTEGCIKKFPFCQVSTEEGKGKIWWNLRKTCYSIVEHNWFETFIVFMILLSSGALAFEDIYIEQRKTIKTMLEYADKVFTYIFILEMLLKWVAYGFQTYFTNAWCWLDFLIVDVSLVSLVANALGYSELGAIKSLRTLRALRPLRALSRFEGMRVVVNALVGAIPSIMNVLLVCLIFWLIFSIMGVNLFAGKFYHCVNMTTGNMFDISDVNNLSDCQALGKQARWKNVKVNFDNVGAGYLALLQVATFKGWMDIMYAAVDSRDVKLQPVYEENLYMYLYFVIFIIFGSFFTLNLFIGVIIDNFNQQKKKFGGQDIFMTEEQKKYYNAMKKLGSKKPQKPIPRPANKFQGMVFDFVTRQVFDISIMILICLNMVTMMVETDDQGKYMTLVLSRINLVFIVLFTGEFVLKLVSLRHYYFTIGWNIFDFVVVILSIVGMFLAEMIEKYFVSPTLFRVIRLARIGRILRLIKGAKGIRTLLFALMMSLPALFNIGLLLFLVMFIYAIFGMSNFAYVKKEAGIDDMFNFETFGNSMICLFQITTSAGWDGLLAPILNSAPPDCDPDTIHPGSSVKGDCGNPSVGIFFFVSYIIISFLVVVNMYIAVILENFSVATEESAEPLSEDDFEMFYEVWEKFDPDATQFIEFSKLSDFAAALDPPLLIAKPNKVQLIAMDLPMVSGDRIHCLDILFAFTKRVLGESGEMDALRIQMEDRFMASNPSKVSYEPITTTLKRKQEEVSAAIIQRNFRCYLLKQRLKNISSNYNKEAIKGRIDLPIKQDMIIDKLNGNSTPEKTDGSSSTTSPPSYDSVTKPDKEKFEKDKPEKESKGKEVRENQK

**Q.** `CC(=O)Nc1cc(C(=O)NC(C)c2ccc(OCC(F)(F)F)nc2)ccn1` (single isomer, unassigned; (-)) [Example 1, (−)-2-acetamido-N-(1-(6-(2,2,2-trifluoroethoxy)pyridin-3-yl)ethyl)isonicotinamide] was tested. Which IC50 [1] did it give?
**A.** 2.8 µM

**Q.** What about the “activity in paw incision-induced static allodynia (PWT)” value [2] of the same compound?
**A.** significant activity
